Literature values in EP0763114B1, “HEPATITIS G VIRUS AND MOLECULAR CLONING THEREOF” (priority 1994, dated 1995).

System: HCV
Settings: individuals infected with HCV, while ribavirin was administered

NC(=O)c1ncn([C@@H]2O[C@H](CO)[C@@H](O)[C@H]2O)n1 [ribavirin, 1-B-D-ribofuranosyl-1-2,4-triazole, 3-carboxamide]
serum levels of alanine aminotransferase (ALT): significant reductions | viral titer: significant reductions
